Experimental data from patent US20090061031A1, “Compositions and methods for treating obesity, obesity related disorders and for inhibiting the infectivity of human immunodeficiency virus” (priority 2006, published 2009).
Values joined by “and” are separate entries in the source; they are usually repeats but may differ in a detail not shown here. Equal entries are not always repeated. Where two headings read alike, the source gives them in different places.

Experiments:
[1] = tested on: HIV-1; format: cell-based, HIV-1IIIB
[2] = target: T1, HIV-1 integrase (Human immunodeficiency virus type 1 group M subtype B, UniProt P12497, C1427S/F1332H); assay: HIV-1 integrase strand-transfer (integration) assay; format: biochemical; conditions: U3-GT into pUC18, read-out: Inhibitory Activity EC50 HIV-1 Integrase ST
[3] = in vitro; conditions: human
Description: Uninfected MT2 and H9 cell lines, and HIV-1IIIB chronically infected H9 (H9/HIV-1IIIB) and HIV-1/IIIB virus, were obtained through the AIDS Research and Reference Reagent Program, NIAID, NIH. […] The cell lines were cultured in RPMI medium 1640 containing 100 U/ml penicillin, 100 μg/ml streptomycin, 2 mM L-glutamine, and 10% heat-inactivated fetal calf serum. Viral stocks were prepared and standardized as described [8].
Cytotoxicity was evaluated by the MTT assay [8].

[4] = tested on: HIV-1 primary isolates, M and T tropic strains from different clades; assay: Activity against a panel of HIV-1 primary isolates; format: cell-based
[5] = target: T2, HIV-1 gp41 fusion core 6HB (N36 + C34) (Human immunodeficiency virus type 1 group M subtype B, UniProt P04578); assay: Fusion core 6HB formation by native PAGE; conditions: Inhibitory Activity EC50 Fusion Core Formation 6HB (N36 + C34) N-PAGE, N36 pre-incubated with compound
Description: (§1) Fusion complex formation was carried out by incubating equimolar amounts of HIV-1 gp41 fusion peptides N36 and C34 in PBS (Phosphate Buffer Saline, containing 50 mM sodium phosphate, pH 7.2 and 150 mM NaCl) at 10 or 20 μM each at 37° C. […] Next, an equimolar amount of C34 was added and the samples incubated for 30 min.
N-PAGE was carried out as previously reported [13] with modifications that involve fusion peptide concentration, order of reactions, and time of incubation in fusion complex formation. Tris-glycine gels (18%, Invitrogen, Carlsbad, Calif.) were electrophoresed at 120 V for 2 h, stained with Coomassie Blue and analyzed by densitometry.

[6] = target: T1, HIV-1 integrase; assay: HIV-1 integrase disintegration assay; format: biochemical; conditions: read-out: EC50s of inhibition of disintegration product formation
[7] = target: T1, HIV-1 integrase; assay: HIV-1 integrase 3′-processing assay; format: biochemical; conditions: 21-mer U3 substrate, read-out: Inhibitory Activity EC50 HIV-1 Integrase 3′-Proc
[8] = target: T2, HIV-1 gp41 fusion core 6HB (N36 + C34); assay: Fusion core 6HB formation by circular dichroism spectroscopy
Description: as §1
CD spectra were recorded on an AVIV 62-DS CD spectrometer, using 1 mm sample cells and a fixed temperature of 4° C. […] Each spectrum is a smoothed average of 10 scans. The bandwidth for each measurement was 1 nm. […] Prior to calculation of the final ellipticity, all spectra were corrected by subtracting the reference spectra of PBS without peptides.

[9] = tested on: HIV-1; assay: HIV-1 core protein p24 production; format: cell-based, HIV-1IIIB; conditions: Human immunodeficiency virus 1, 50% inhibition, read-out: Anti-HIV Activity EC50 P24
[10] = design: species or system C57BL/6 wild-type mice; conditions: mouse, in vivo, po
Description: To verify that we can administer oleuropein chronically to mice, we added purified oleuropein to drinking water at concentrations of 5 μg/ml, 50 μg/ml, 500 μg/ml, and 5 mg/ml. The water intake of mice averages 5 ml per mouse per day, these dosages of oleuropein result in daily doses of 0.025 mg, 0.25 mg, 2.5 mg, and 25 mg per mouse per day (equivalent to 1, 10, 100, and 1000 mg/kg body weight). 5 male and 5 female C57BL/6 wild-type mice were used for each dose of oleuropein, and housed them in metabolic cages that allow precise determination of water intake and quantitative urine collection.
After seven days to 4 months of chronic steady-state administration, mice blood and urine were collected. 100 μl of serum or urine were extracted with 1 ml ethyl acetate, evaporated to dryness, and reconstituted with 25 μl water and 5 μl was injected for LC-MS analysis.
LC-MS quantitation was performed using an HP1100 equipped with diode array detector and ESI-mass spectrometer. LC was done using a C18 column (4×20 mm), with a 4 minute elution using a gradient of 5-95% CH3CN—H2O containing 1% acetic acid. The diode array recordings were made at 280 nm and 230 nm, and the ESI mass spectrum was made in negative detection mode. Purified oleuropein, and hydroxytyrosol (synthesized by us) were used as standards. The injection volumes were 5 μl. […]

[11] = tested on: apoE ko mice; assay: Diet-induced atherosclerosis in Western diet-fed apoE ko mouse; format: in vivo; conditions: 0.25 mg/ml in drinking water (daily dose 1.25 mg), 4 months
Description: To test whether oleuropein reduces diet-induced atherosclerosis, oleuropein was administered to apoE ko mice at various doses from 0.25 mg/ml, 2.5 mg/ml, and 25 mg/ml in the drinking water followed by feeding them with a Western diet containing 42% of calories from fat (Harlan-Teklad). […] The mice were sacrificed, blood and tissues collected. Aortas were dissected from the aortic valve to the iliac bifurcation, opened longitudinally, and pinned to a black wax surface. Atherosclerotic lesions were stained with Oil Red O. The total area of the aorta and the atherosclerotic lesion areas were determined by planimetry using Image Pro software.

[12] = Human immunodeficiency virus 1, syncytial formation, 50% inhibition, read-out: Anti-HIV Activity EC50 Syncytium

T2 sequence (P04578 546-581): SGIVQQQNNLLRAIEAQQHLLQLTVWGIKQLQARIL

| SMILES | EC50 [1, 12] | EC50 [2] | IC50 [3] | activity against HIV-1 primary isolates [4] | EC50 [5] | EC50 [6] | EC50 [7] | EC50 [8] | EC50 [9] | tolerability in animals [10] | EC50 ([1]; Human immunodeficiency virus 1, read-out: average EC50 for syncytial formation) | serum levels of oleuropein [11] |
| --- | --- | --- | --- | --- | --- | --- | --- | --- | --- | --- | --- | --- |
| OCCc1ccc(O)c(O)c1 [HT, hydroxytyrosol] | 61 nM | 43 nM | > 10000 nM | active | ~58 nM and 58 nM | 18 nM | 54 nM | 60 nM | 68 nM | – | – | – |
| C/C=C1/[C@H](O[C@@H]2O[C@H](CO)[C@@H](O)[C@H](O)[C@H]2O)OC=C(C(=O)OC)[C@H]1CC(=O)OCCc1ccc(O)c(O)c1 (single isomer, unassigned) [Ole, oleuropein] | 55 ± 5 nM | 56 nM | > 10000 nM | active | ~66 nM and 66 nM | 28 nM | 46 nM | 62 nM | 73 nM | well tolerated | 55 nM | comparable to those in animals fed a diet supplemented with olive oil |
